According to US8202513B2, “Aryl potassium channel blockers and uses thereof” (Bionomics Limited, priority 2007, dated 2012):

Target: T1, human Kv1.3 ion channel (Homo sapiens, UniProt P22001)
T1 construct: Human Jurkat cells (which endogenously express hKv1.3) or Chinese Hamster Ovary (CHO) cells stably transfected with hKv1.3 were used; endogenous in cells; host or cells: Human Jurkat cells (endogenous) or CHO cells stably transfected with hKv1.3
Experiment: Inhibition of Kv1.3 currents, planar patch clamp
Assay type: cell-based
Conditions: Human Jurkat cells or CHO cells stably transfected with hKv1.3; averaged dose response data from 3 or more cells
Protocol: Potency of compounds to inhibit the human Kv1.3 ion channel was determined as follows:
EC50 values for inhibition of Kv1.3 currents were determined by the method according to Schmitz et al (2005) Molecular Pharmacology 68, 1254-1270 with the following differences: • 1. Human Jurkat cells (which endogenously express hKv1.3) or Chinese Hamster Ovary (CHO) cells stably transfected with hKv1.3 were used in place of transfected rat L929 cells. • 2. All electrophysiology was performed using planar patch clamp (Port-A-Patch, Nanion Technologies Gmbh, Munich) in contrast to conventional patch clamp. • 3. EC50 values shown were determined from averaged dose response data obtained from 3 or more cells.

T1 sequence (P22001 whole entry): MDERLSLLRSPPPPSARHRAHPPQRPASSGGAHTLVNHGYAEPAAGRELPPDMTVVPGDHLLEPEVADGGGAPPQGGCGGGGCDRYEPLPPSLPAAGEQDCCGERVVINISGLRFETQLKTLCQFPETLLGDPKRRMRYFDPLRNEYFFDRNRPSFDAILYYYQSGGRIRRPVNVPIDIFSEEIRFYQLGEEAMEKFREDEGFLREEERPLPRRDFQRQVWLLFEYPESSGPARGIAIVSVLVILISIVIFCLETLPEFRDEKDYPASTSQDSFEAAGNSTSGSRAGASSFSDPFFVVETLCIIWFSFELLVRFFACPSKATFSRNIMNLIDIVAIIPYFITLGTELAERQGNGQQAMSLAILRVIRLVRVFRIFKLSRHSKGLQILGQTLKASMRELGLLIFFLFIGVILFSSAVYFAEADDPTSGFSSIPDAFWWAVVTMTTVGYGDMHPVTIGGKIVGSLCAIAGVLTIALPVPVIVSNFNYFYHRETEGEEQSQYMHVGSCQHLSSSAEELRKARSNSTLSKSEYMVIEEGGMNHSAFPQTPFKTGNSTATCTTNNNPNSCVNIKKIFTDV

Row | EC50 | SMILES
1 | > 300 nM | COc1c(Cl)c(C)c(C(C)=O)c(OCCN2CC(O)C2)c1OCCCc1ccccc1 [Example 38, 1-[3-Chloro-6-[2-(3-hydroxy-azetidin-1-yl)-ethoxy]-4-methoxy-2-methyl-5-(3-phenyl-propoxy)-phenyl]-ethanone]
2 | < 50 nM | COc1c(Cl)c(C)c(C(C)=O)c(OCCc2ccccn2)c1CCCC(C)c1ccc(F)cc1 (centres unmarked) [Example 32, 1-[3-Chloro-5-[4-(4-fluoro-phenyl)-pentyl]-4-methoxy-2-methyl-6-(2-pyridin-2-yl-ethoxy)-phenyl]-ethanone]
3 | > 300 nM | COc1c(Cl)c(C)c(C(C)=O)c(OCCN2CC(=O)C2)c1OCCCc1ccccc1 [Example 39, 1-[3-Chloro-6-[2-(3-oxo-azetidin-1-yl)-ethoxy]-4-methoxy-2-methyl-5-(3-phenyl-propoxy)-phenyl]-ethanone]
4 | 150 to 300 nM | COc1c(Cl)c(C)c(C(C)=O)c(OCCN2CCC(F)(F)C2)c1OCCCc1ccccc1 [Example 37, 1-[3-Chloro-6-[2-(3,3-difluoro-pyrrolidin-1-yl)-ethoxy]-4-methoxy-2-methyl-5-(3-phenyl-propoxy)-phenyl]-ethanone]
5 | < 50 nM | COc1c(Cl)c(C)c(C(C)=O)c(OCCc2ccccn2)c1CCCCc1ccccc1 [Example 27, 1-(3-Chloro-4-methoxy-2-methyl-5-(4-phenylbutyl)-6-(2-(pyridine-2-yl)ethoxy)phenyl)ethanone]
6 | > 300 nM | COc1cc(OCCCCOc2ccccc2)c(C(C)=O)c(OCCN2CCOCC2)c1 [reference compound]
7 | > 300 nM | CC(=O)c1ccc(N)cc1OCCCc1ccccc1 [reference compound]
8 | > 300 nM | C=CCc1c(NC(C)=O)ccc(C(C)=O)c1OCCCc1ccccc1 [reference compound]
9 | > 300 nM | COc1ccc(C(C)=O)c(NCCCc2ccccc2)c1 [reference compound]
10 | > 300 nM | CCCc1c(NCC)ccc(C(C)=O)c1OCCCc1ccccc1 [reference compound]
11 | 50 to 150 nM | COc1c(Cl)c(C)c(C(C)=O)c(OCCN2CCSCC2)c1OCCCc1ccccc1 [Example 36, 1-[3-Chloro-4-methoxy-2-methyl-5-(3-phenyl-propoxy)-6-(2-thiomorpholin-4-yl-ethoxy)-phenyl]-ethanone]
12 | 50 to 150 nM | COc1c(Cl)c(C)c(C(C)=O)c(OCCN2CCOCC2)c1OCCCc1ccc(F)cc1 [Example 1f, 1-(3-Chloro-5-(3-(4-fluorophenyl)propoxy)-4-methoxy-2-methyl-6-(2-morpholinoethoxy)phenyl)ethanone]
13 | 150 to 300 nM | COc1cc(C)c(C(C)=O)c(OCCN2CCOCC2)c1OCCCc1ccccc1 [Example 33b, 1-[4-Methoxy-6-methyl-2-(2-morpholin-4-yl-ethoxy)-3-(3-phenyl-propoxy)-phenyl]-ethanone]
14 | > 300 nM | CCCC(=O)c1ccc(NC(C)=O)cc1OCCCc1ccccc1 [reference compound]
15 | < 50 nM | COc1c(Cl)c(C)c(C(C)=O)c(OCCNC2CCCC2)c1OCCCc1ccc(F)cc1 [Example 2, 1-(3-Chloro-6-(cyclopentylamino)ethoxy)-5-(3-(4-fluorophenyl)propoxy-4-methoxy-2-methylphenyl)ethanone]
16 | > 300 nM | COc1cc(C)c(C(C)=O)c(O)c1OCCCc1ccccc1 [Example 33a, 1-(3-(3-(phenyl)propoxy)-2-hydroxy-4-methoxy-6-methylphenyl)ethanone, reference compound]
17 | > 300 nM | CC(=O)c1c(O)cccc1OCCCCOc1ccccc1 [reference compound]
18 | 50 to 150 nM | COc1c(Cl)c(C)c(C(C)=O)c(OCCNC2CCCC2)c1OCCCc1ccccc1 [Example 34c, 1-[3-Chloro-6-(2-cyclopentylamino-ethoxy)-4-methoxy-2-methyl-5-(3-phenyl-propoxy)-phenyl]-ethanone]
19 | > 300 nM | CC(=O)c1c(OCCCCOc2ccccc2)cccc1OCCN1CCOCC1 [reference compound]
20 | 50 to 150 nM | COc1c(Cl)c(C)c(C(C)=O)c(OCCN2CCOCC2)c1CCCC(C)c1ccc(F)cc1 (centres unmarked) [Example 31b, 1-(3-Chloro-5-(4-(4-fluorophenyl)pentyl)-4-methoxy-2-methyl-6-(2-morpholinoethoxy)phenyl)ethanone]
21 | 150 to 300 nM | COc1cc(O)c(C(C)=O)c(OCCCCOc2ccccc2)c1 [reference compound]

Row | SMILES | EC50
22 | COc1c(Cl)c(C)c(C(C)=O)c(OCCN2CCC(F)CC2)c1OCCC(C)c1ccc(F)cc1 (centres unmarked) [Example 11, 1-{3-Chloro-5-[3-(4-fluoro-phenyl)-butoxy]-6-[2-(4-fluoro-piperidin-1-yl)-ethoxy]-4-methoxy-2-methyl-phenyl}-ethanone] | 50 to 150 nM
23 | COc1c(Cl)c(C)c(C(C)=O)c(OCCCN2CCOCC2)c1OCCC(C)c1ccc(F)cc1 (centres unmarked) [Example 22b, 1-[3-Chloro-5-[3-(4-fluoro-phenyl)-butoxy]-4-methoxy-2-methyl-6-(3-morpholin-4-yl-propoxy)-phenyl]-ethanone] | < 50 nM
24 | COc1c(Cl)c(C)c(C(C)=O)c(OCCn2ccnc2)c1OCCC(C)c1ccc(F)cc1 (centres unmarked) [Example 41, 1-[3-Chloro-5-[3-(4-fluoro-phenyl)-butoxy]-6-(2-imidazol-1-yl-ethoxy)-4-methoxy-2-methyl-phenyl]-ethanone] | < 50 nM
25 | COc1c(Cl)c(C)c(C(C)=O)c(OCCCN2CC[S+]([O-])CC2)c1OCCC(C)c1ccc(F)cc1 (centres unmarked) [Example 24, 1-{3-Chloro-5-[3-(4-fluoro-phenyl)-butoxy]-4-methoxy-2-methyl-6-[3-(1-oxo-thiomorpholin-4-yl)-propoxy]-phenyl}-ethanone] | 50 to 150 nM
26 | COc1c(Cl)c(C)c(C(C)=O)c(OCCN2CC[C@@H](F)C2)c1OCCC(C)c1ccc(F)cc1 (some centres unmarked) [Example 12, 1-{3-Chloro-5-[3-(4-fluoro-phenyl)-butoxy]-6-[2-(R-3-fluoro-pyrrolidin-1-yl)-ethoxy]-4-methoxy-2-methyl-phenyl}-ethanone] | < 50 nM
27 | COc1c(Cl)c(C)c(C(C)=O)c(OCc2ccccn2)c1OCCC(C)c1ccc(F)cc1 (centres unmarked) [Example 13, 1-[3-Chloro-5-[3-(4-fluoro-phenyl)-butoxy]-4-methoxy-2-methyl-6-(pyridin-2-ylmethoxy)-phenyl]-ethanone] | 150 to 300 nM
28 | COc1c(C)c(C)c(C(C)=O)c(OCCc2ccccn2)c1OCCC(C)c1ccc(F)cc1 (centres unmarked) [Example 4f, 1-[3-[3-(4-Fluoro-phenyl)-butoxy]-4-methoxy-5,6-dimethyl-2-(2-pyridin-2-yl-ethoxy)-phenyl]-ethanone] | < 50 nM
29 | COc1c(Cl)c(C)c(C(C)=O)c(OCCNC2CCCC2)c1OCCC(C)c1ccc(F)cc1 (centres unmarked) [Example 9, 1-[3-Chloro-6-(2-cyclopentylamino-ethoxy)-5-[3-(4-fluoro-phenyl)-butoxy]-4-methoxy-2-methyl-phenyl]-ethanone] | 50 to 150 nM
30 | COc1c(Cl)c(C)c(C(C)=O)c(OCCN2CCOC[C@@H]2C)c1OCCC(C)c1ccc(F)cc1 (stereo partly drawn) [Example 42, 1-{3-Chloro-5-[3-(4-fluoro-phenyl)-butoxy]-4-methoxy-2-methyl-6-[2-((S)-3-methyl-morpholin-4-yl)-ethoxy]-phenyl}-ethanone] | 50 to 150 nM
31 | COc1c(Cl)c(C)c(C(C)=O)c(OCCN2CC(F)(F)C2)c1OCCC(C)c1ccc(F)cc1 (centres unmarked) [Example 20, 1-{3-Chloro-6-[2-(3,3-difluoro-azetidin-1-yl)-ethoxy]-5-[3-(4-fluoro-phenyl)-butoxy]-4-methoxy-2-methyl-phenyl}-ethanone] | 50 to 150 nM
32 | COc1c(C)c(C)c(C(C)=O)c(OCCN2CCOCC2)c1OCCC(C)c1ccc(F)cc1 (centres unmarked) [Example 5, 1-[3-[3-(4-Fluoro-phenyl)-butoxy]-4-methoxy-5,6-dimethyl-2-(2-morpholin-4-yl-ethoxy)-phenyl]-ethanone] | < 50 nM
33 | COc1c(Cl)c(C)c(C(C)=O)c(OCCN2CCC(=O)CC2)c1OCCC(C)c1ccc(F)cc1 (centres unmarked) [Example 15, 1-{3-Chloro-5-[3-(4-fluoro-phenyl)-butoxy]-6-[2-(4-oxo-piperidin-1-yl)-ethoxy]-4-methoxy-2-methyl-phenyl}-ethanone] | < 50 nM
34 | COc1c(Cl)c(C)c(C(C)=O)c(OCCN2CCCC(F)(F)C2)c1OCCC(C)c1ccc(F)cc1 (centres unmarked) [Example 17, 1-{3-Chloro-6-[2-(3,3-difluoro-piperidin-1-yl)-ethoxy]-5-[3-(4-fluoro-phenyl)-butoxy]-4-methoxy-2-methyl-phenyl}-ethanone] | < 50 nM
35 | COc1c(Cl)c(C)c(C(C)=O)c(OCCCN2CCS(=O)(=O)CC2)c1OCCC(C)c1ccc(F)cc1 (centres unmarked) [Example 23, 1-{3-Chloro-6-[3-(1,1-dioxo-thiomorpholin-4-yl)-propoxy]-5-[3-(4-fluoro-phenyl)-butoxy]-4-methoxy-2-methyl-phenyl}-ethanone] | < 50 nM
36 | COc1c(C)c(C)c(C(C)=O)c(OCCNC2CCCC2)c1OCCC(C)c1ccc(F)cc1 (centres unmarked) [Example 6, 1-{2-(2-Cyclopentylamino-ethoxy)-3-[3-(4-fluoro-phenyl)-butoxy]-4-methoxy-5,6-dimethyl-phenyl}-ethanone] | < 50 nM
37 | COc1c(Cl)c(C)c(C(C)=O)c(OCCN2CCCCC2)c1OCCC(C)c1ccc(F)cc1 (centres unmarked) [Example 10, 1-[3-Chloro-5-[3-(4-fluoro-phenyl)-butoxy]-4-methoxy-2-methyl-6-(2-piperidin-1-yl-ethoxy)-phenyl]-ethanone] | < 50 nM
38 | COc1c(Cl)c(C)c(C(C)=O)c(OCCN2CCC(F)(F)CC2)c1OCCC(C)c1ccc(F)cc1 (centres unmarked) [Example 16, 1-{3-Chloro-6-[2-(4,4-difluoro-piperidin-1-yl)-ethoxy]-5-[3-(4-fluoro-phenyl)-butoxy]-4-methoxy-2-methyl-phenyl}-ethanone] | 50 to 150 nM
